Data from patent US9499550B2 (BRISTOL-MYERS SQUIBB COMPANY, priority 2012, dated 2016).
Read-outs that look alike come from different tables or passages of the source.

Columns and labels:
[1] = test system: HCV genotype 1b (Con1) replicon in HUH-7 cells; assay: HCV replicon luciferase reporter assay, genotype 1b; assay type: cell-based; conditions: Hepatitis C virus, Huh-7, 72 h, 3 days incubation, read-out: LE_1b (EC50, range)
Procedure, shortened: (§1)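 Replicon inhibition for both genotypes was measured as Renilla luciferase signal (EnduRen, 7.5 μM final, 2 h) after 3-day, 37° C exposure of replicon-bearing HUH-7 cells in 4% FCS DMEM, 0.5% DMSO. The 1b construct carries S1179I; the 1a H77 construct carries P1496L and S2204I. Twenty-point, 3-fold dilutions were fitted four-parametrically for EC50, and CC50 was taken from multiplexed Cell Titer-Blue.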

[2] = test system: HCV genotype 1a (H77 strain) replicon in HUH-7 cells; assay: HCV replicon luciferase reporter assay, genotype 1a; assay type: cell-based; conditions: Hepatitis C virus, Huh-7, 72 h, 3 days incubation, read-out: LE_1a (EC50, range)
Procedure, shortened: as §1

[3] = GETYPE1B, HCV genotype 1b replicon luciferase
[4] = GETYPE1A, HCV genotype 1a replicon luciferase
[5] = HCV genotype 1b replicon luciferase
[6] = HCV genotype 1a replicon luciferase
[7] = HCV genotype 1b replicon luciferase assay, range class
[8] = HCV genotype 1a replicon luciferase assay, range class

| Structure (SMILES) | EC50 [1, 3] [nM] | EC50 [2, 4] [nM] | EC50 [1, 5] [nM] | EC50 [2, 6] [nM] | also measured |
| --- | --- | --- | --- | --- | --- |
| COc1ccc2c(O[C@@H]3C[C@H]4C(=O)N[C@]5(C(=O)NS(=O)(=O)C6(CF)CC6)C[C@H]5/C=C\CC[C@@H](C)C[C@@H](C)[C@H](NC(=O)O[C@@]5(C(F)(F)F)CCCOC5)C(=O)N4C3)nc(-c3ccc(OC(C)C)cc3)cc2c1 [Compound 1183] | 1.01 to 5 | 1.01 to 5 | – | – | – |
| CC[C@@H]1C[C@H](C)CC/C=C\[C@@H]2C[C@@]2(C(=O)NS(=O)(=O)C2(C)CC2)NC(=O)[C@@H]2C[C@@H](Oc3ncc(N4CCOCC4)c4cc(OC)c(F)cc34)CN2C(=O)[C@H]1NC(=O)OC(C)(C)C(F)(F)F [Compound 4237] | < 5.46 | < 5.46 | – | – | – |
| COc1cc2ccnc(O[C@@H]3C[C@H]4C(=O)N[C@]5(C(=O)NS(=O)(=O)C6(CF)CC6)C[C@H]5/C=C\CC[C@@H](C)C[C@@H](C)[C@H](NC(=O)C(C)(C)C(F)(F)F)C(=O)N4C3)c2cc1F [Compound 4091, (2R,6S,7R,9R,13aS,14aR,16aS,Z)-2-(7-fluoro-6-methoxyisoquinolin-1-yloxy)-N-(1-(fluoromethyl)cyclopropylsulfonyl)-7,9-dimethyl-5,16-dioxo-6-(3,3,3-trifluoro-2,2-dimethylpropanamido)-1,2,3,5,6,7,8,9,10,11,13a,14,14a,15,16,16a-hexadecahydrocyclopropa[e]pyrrolo[1,2-a][1,4]diazacyclopentadecine-14a-carboxamide] | – | – | < 5.46 | < 5.46 | – |
| COc1ccc2nc(O[C@@H]3C[C@H]4C(=O)N[C@]5(C(=O)NS(=O)(=O)C6(C)CC6)C[C@H]5/C=C\CC[C@@H](C)C[C@@H](C)[C@H](NC(=O)OC(C)(C)C)C(=O)N4C3)cnc2c1 [Compound 4085, tert-butyl (2R,6S,7R,9R,13aS,14aR,16aS,Z)-2-(6-methoxyquinoxalin-2-yloxy)-7,9-dimethyl-14a-(1-methylcyclopropylsulfonylcarbamoyl)-5,16-dioxo-1,2,3,5,6,7,8,9,10,11,13a,14,14a,15,16,16a-hexadecahydrocyclopropa[e]pyrrolo[1,2-a][1,4]diazacyclopentadecin-6-ylcarbamate] | – | – | < 5.46 | 4.82 to 103 | – |
| COc1cnc(O[C@@H]2C[C@H]3C(=O)N[C@]4(C(=O)NS(=O)(=O)C5(C)CC5)C[C@H]4/C=C\CC[C@@H](C)C[C@@H](C)[C@H](NC(=O)OC(C)(C)C(F)(F)F)C(=O)N3C2)c2cc(F)ccc12 [Compound 4060] | < 5.46 | < 5.46 | – | – | – |
| C[C@@H]1CC/C=C\[C@@H]2C[C@@]2(C(=O)NS(=O)(=O)C2(C)CC2)NC(=O)[C@@H]2C[C@@H](Oc3nc4c(c5ccccc35)OCCC4)CN2C(=O)[C@@H](NC(=O)OC(C)(C)C(F)(F)F)[C@H](C)C1 [Compound 6022, 1,1,1-trifluoro-2-methylpropan-2-yl((2R,6S,7R,9R,13aS,14aR,16aS,Z)-2-((3,4-dihydro-2H-pyrano[3,2-c]isoquinolin-6-yl)oxy)-7,9-dimethyl-14a-(((1-methylcyclopropyl)sulfonyl)carbamoyl)-5,16-dioxo-1,2,3,5,6,7,8,9,10,11,13a,14,14a,15,16,16a-hexadecahydrocyclopropa[e]pyrrolo[1,2-a][1,4]diazacyclopentadecin-6-yl)carbamate] | – | – | < 5.46 | < 5.46 | – |
| CCC1(S(=O)(=O)NC(=O)[C@@]23C[C@H]2/C=C\CC[C@H](C)C[C@@H](C)[C@H](NC(=O)OC(C)(C)C(F)(F)F)C(=O)N2C[C@H](Oc4nccc5cc(OC)c(F)cc45)C[C@H]2C(=O)N3)CC1 [Compound 4126] | < 5.46 | < 5.46 | – | – | – |
| COc1ccc2c(O[C@@H]3C[C@H]4C(=O)N[C@]5(C(=O)NS(=O)(=O)C6(F)CC6)C[C@H]5/C=C\CC[C@@H](C)C[C@@H](C)[C@H](NC(=O)OC5CCCC5)C(=O)N4C3)nccc2c1 [Compound 4019] | – | – | < 5.46 | < 5.46 | – |
| [2H]C([2H])([2H])C(OC(=O)N[C@@H]1C(=O)N2C[C@H](Oc3ncc(OC)c4ccc(F)cc34)C[C@H]2C(=O)N[C@]2(C(=O)NS(=O)(=O)C3(C)CC3)C[C@H]2/C=C\CC[C@@H](C)C[C@H]1CC)(C([2H])([2H])[2H])C(F)(F)F [Compound 5453] | – | – | 0.51 to 1 | 1.01 to 5 | – |
| CC(C)Oc1cc2ccccc2c(O[C@@H]2C[C@H]3C(=O)N[C@]4(C(=O)NS(=O)(=O)C5(C)CC5)C[C@H]4/C=C\CC[C@@H](C)C[C@@H](C)[C@H](NC(=O)OC(C)(C)C(C)(F)F)C(=O)N3C2)n1 [Compound 6106, 3,3-difluoro-2-methylbutan-2-yl((2R,6S,7R,9R,13aS,14aR,16aS,Z)-2-((3-isopropoxyisoquinolin-1-yl)oxy)-7,9-dimethyl-14a-(((1-methylcyclopropyl)sulfonyl)carbamoyl)-5,16-dioxo-1,2,3,5,6,7,8,9,10,11,13a,14,14a,15,16,16a-hexadecahydrocyclopropa[e]pyrrolo[1,2-a][1,4]diazacyclopentadecin-6-yl)carbamate] | – | – | 0.1 to 0.5 | 1.01 to 5 | – |
| COc1cccc2c(O[C@@H]3C[C@H]4C(=O)N[C@]5(C(=O)NS(=O)(=O)C6(C)CC6)C[C@H]5/C=C\CC[C@H](C)C[C@@H](C)[C@H](NC(=O)OC(C)(C)C)C(=O)N4C3)nccc12 [Compound 3035, tert-butyl ((2R,6S,7R,9S,13aS,14aR,16aS,Z)-2-((5-methoxyisoquinolin-1-yl)oxy)-7,9-dimethyl-14a-(((1-methylcyclopropyl)sulfonyl)carbamoyl)-5,16-dioxo-1,2,3,5,6,7,8,9,10,11,13a,14,14a,15,16,16a-hexadecahydrocyclopropa[e]pyrrolo[1,2-a][1,4]diazacyclopentadecin-6-yl)carbamate] | – | – | – | – | EC50 [1, 7]: < 5.46 nM; EC50 [2, 8]: 4.82 to 103 nM |
| COc1ccc2c(O[C@@H]3C[C@H]4C(=O)N[C@]5(C(=O)NS(=O)(=O)C6CC6)C[C@H]5/C=C\CC[C@H](C)C[C@@H](C)[C@H](NC(=O)O[C@H](C)C(F)(F)F)C(=O)N4C3)nc(N3CCOCC3)cc2c1 [Compound 3102, (R)-1,1,1-trifluoropropan-2-yl ((2R,6S,7R,9S,13aS,14aR,16aS,Z)-14a-((cyclopropylsulfonyl)carbamoyl)-2-((6-methoxy-3-morpholinoisoquinolin-1-yl)oxy)-7,9-dimethyl-5,16-dioxo-1,2,3,5,6,7,8,9,10,11,13a,14,14a,15,16,16a-hexadecahydrocyclopropa[e]pyrrolo[1,2-a][1,4]diazacyclopentadecin-6-yl)carbamate] | – | – | – | – | EC50 [1, 7]: < 5.46 nM; EC50 [2, 8]: 4.82 to 103 nM |
| COc1ccc2c(O[C@@H]3C[C@H]4C(=O)N[C@]5(C(=O)NS(=O)(=O)C6(C)CC6)C[C@H]5/C=C\CC[C@@H](C)C[C@@H](C)[C@H](NC(=O)OC(C)(C)C(F)(F)F)C(=O)N4C3)cc(-c3ccc(OC(C)C)c(F)c3)nc2c1 [Compound 4247] | 1.01 to 5 | 1.01 to 5 | – | – | – |
| COc1ccc2ncc(O[C@@H]3C[C@H]4C(=O)N[C@]5(C(=O)NS(=O)(=O)C6(CF)CC6)C[C@H]5/C=C\CC[C@@H](C)C[C@@H](C)[C@H](NC(=O)OC(C)(C)C)C(=O)N4C3)nc2c1 [Compound 4089, tert-butyl (2R,6S,7R,9R,13aS,14aR,16aS,Z)-14a-(1-(fluoromethyl)cyclopropylsulfonylcarbamoyl)-2-(7-methoxyquinoxalin-2-yloxy)-7,9-dimethyl-5,16-dioxo-1,2,3,5,6,7,8,9,10,11,13a,14,14a,15,16,16a-hexadecahydrocyclopropa[e]pyrrolo[1,2-a][1,4]diazacyclopentadecin-6-ylcarbamate] | – | – | < 5.46 | 4.82 to 103 | – |
| COc1ccc2c(O[C@@H]3C[C@H]4C(=O)N[C@]5(C(=O)NS(=O)(=O)C6(C)CC6)C[C@H]5/C=C\CC[C@@H](C)C[C@@H](C)[C@H](NC(=O)OC(C)(C)C)C(=O)N4C3)ncnc2c1 [Compound 4144, tert-butyl (2R,6S,7R,9R,13aS,14aR,16aS,Z)-2-(7-methoxyquinazolin-4-yloxy)-7,9-dimethyl-14a-(1-methylcyclopropylsulfonylcarbamoyl)-5,16-dioxo-1,2,3,5,6,7,8,9,10,11,13a,14,14a,15,16,16a-hexadecahydrocyclopropa[e]pyrrolo[1,2-a][1,4]diazacyclopentadecin-6-ylcarbamate] | – | – | < 5.46 | < 5.46 | – |
| C[C@H]1CC/C=C\[C@@H]2C[C@@]2(C(=O)NS(=O)(=O)C2(C)CC2)NC(=O)[C@@H]2C[C@@H](Oc3nc(OCC(F)F)cc4c(Cl)cccc34)CN2C(=O)[C@@H](NC(=O)OC(C)(C)C)[C@H](C)C1 [Compound 1073, tert-butyl ((2R,6S,7R,9S,13aS,14aR,16aS,Z)-2-((5-chloro-3-(2,2-difluoroethoxyl)isoquinolin-1-yl)oxy)-7,9-dimethyl-14a-(((1-methylcyclopropyl)sulfonyl)carbamoyl)-5,16-dioxo-1,2,3,5,6,7,8,9,10,11,13a,14,14a,15,16,16a-hexadecahydrocyclopropa[e]pyrrolo[1,2-a][1,4]diazacyclopentadecin-6-yl)carbamate] | – | – | – | – | EC50 [1, 7]: < 5.46 nM; EC50 [2, 8]: < 5.46 nM |
